Assay: xn = mol fraction of the nth substance listed

ClC(Cl)Cl + CC(C)=O
Conditions	viscosity [mPa·s]
293.15 K, 101 kPa, x1 = 0.157	0.3875
293.15 K, 101 kPa, x1 = 0.362	0.466
293.15 K, 101 kPa, x1 = 0.483	0.511
293.15 K, 101 kPa, x1 = 0.609	0.5471
293.15 K, 101 kPa, x1 = 0.824	0.5836
293.15 K, 101 kPa, x2 = 0.112	0.565
293.15 K, 101 kPa, x2 = 0.2	0.561
293.15 K, 101 kPa, x2 = 0.3098	0.543
293.15 K, 101 kPa, x2 = 0.415	0.523
293.15 K, 101 kPa, x2 = 0.502	0.495
293.15 K, 101 kPa, x2 = 0.6075	0.456
293.15 K, 101 kPa, x2 = 0.715	0.421
293.15 K, 101 kPa, x2 = 0.81	0.384
293.15 K, 101 kPa, x2 = 0.9075	0.349
293.15 K, 101.33 kPa, x1 = 0.1193	0.357
293.15 K, 101.33 kPa, x1 = 0.2623	0.408
293.15 K, 101.33 kPa, x1 = 0.3723	0.453
293.15 K, 101.33 kPa, x1 = 0.5128	0.508
293.15 K, 101.33 kPa, x1 = 0.6064	0.538
293.15 K, 101.33 kPa, x1 = 0.7001	0.56
293.15 K, 101.33 kPa, x1 = 0.8577	0.583
293.16 K, 101 kPa, x1 = 0.1193	0.357
293.16 K, 101 kPa, x1 = 0.2623	0.408
293.16 K, 101 kPa, x1 = 0.3723	0.453
293.16 K, 101 kPa, x1 = 0.5128	0.508
293.16 K, 101 kPa, x1 = 0.6064	0.538
293.16 K, 101 kPa, x1 = 0.7001	0.56
293.16 K, 101 kPa, x1 = 0.8577	0.583
293.35 K, 101 kPa, x1 = 0.75	0.6037
293.45 K, 101 kPa, x1 = 0.5	0.5307
298.15 K, 101 kPa, x1 = 0.2	0.353
298.15 K, 101 kPa, x1 = 0.4	0.424
298.15 K, 101 kPa, x1 = 0.6	0.486
298.15 K, 101 kPa, x1 = 0.8	0.512
298.15 K, 101 kPa, x2 = 0.0555	0.5334
298.15 K, 101 kPa, x2 = 0.112	0.538
298.15 K, 101 kPa, x2 = 0.1361	0.5423
298.15 K, 101 kPa, x2 = 0.2	0.534
298.15 K, 101 kPa, x2 = 0.2192	0.5338
298.15 K, 101 kPa, x2 = 0.2437	0.536
298.15 K, 101 kPa, x2 = 0.3023	0.5258
298.15 K, 101 kPa, x2 = 0.3098	0.516
298.15 K, 101 kPa, x2 = 0.3737	0.508
298.15 K, 101 kPa, x2 = 0.415	0.495
298.15 K, 101 kPa, x2 = 0.4585	0.4864
298.15 K, 101 kPa, x2 = 0.496	0.4726
298.15 K, 101 kPa, x2 = 0.502	0.47
298.15 K, 101 kPa, x2 = 0.552	0.4529
298.15 K, 101 kPa, x2 = 0.5688	0.4495
298.15 K, 101 kPa, x2 = 0.6075	0.434
298.15 K, 101 kPa, x2 = 0.6721	0.411
298.15 K, 101 kPa, x2 = 0.6793	0.4052
298.15 K, 101 kPa, x2 = 0.6886	0.4042
298.15 K, 101 kPa, x2 = 0.715	0.402
298.15 K, 101 kPa, x2 = 0.7302	0.3926
298.15 K, 101 kPa, x2 = 0.7676	0.3817
298.15 K, 101 kPa, x2 = 0.8067	0.3628
298.15 K, 101 kPa, x2 = 0.81	0.367
298.15 K, 101 kPa, x2 = 0.8196	0.3551
298.15 K, 101 kPa, x2 = 0.8757	0.3425
298.15 K, 101 kPa, x2 = 0.9075	0.334
298.15 K, 101 kPa, x2 = 0.9182	0.3261
298.15 K, 101 kPa, x2 = 0.9233	0.3206
298.15 K, 101 kPa, x2 = 0.963	0.3092
298.15 K, 101.33 kPa, x1 = 0.1483	0.356
298.15 K, 101.33 kPa, x1 = 0.2721	0.4
298.15 K, 101.33 kPa, x1 = 0.3885	0.445
298.15 K, 101.33 kPa, x1 = 0.4985	0.485
298.15 K, 101.33 kPa, x1 = 0.6363	0.527
298.15 K, 101.33 kPa, x1 = 0.7114	0.543
298.15 K, 101.33 kPa, x1 = 0.8834	0.557
298.16 K, 101 kPa, x1 = 0.1483	0.356
298.16 K, 101 kPa, x1 = 0.2721	0.4
298.16 K, 101 kPa, x1 = 0.3885	0.445
298.16 K, 101 kPa, x1 = 0.4985	0.485
298.16 K, 101 kPa, x1 = 0.6363	0.527
298.16 K, 101 kPa, x1 = 0.7114	0.543
298.16 K, 101 kPa, x1 = 0.8834	0.557
302.95 K, 101 kPa, x1 = 0.25	0.3982
303.15 K, 101 kPa, x2 = 0.112	0.512
303.15 K, 101 kPa, x2 = 0.2	0.507
303.15 K, 101 kPa, x2 = 0.3098	0.488
303.15 K, 101 kPa, x2 = 0.415	0.468
303.15 K, 101 kPa, x2 = 0.502	0.447
303.15 K, 101 kPa, x2 = 0.6075	0.412
303.15 K, 101 kPa, x2 = 0.715	0.383
303.15 K, 101 kPa, x2 = 0.81	0.35
303.15 K, 101 kPa, x2 = 0.9075	0.322
303.15 K, 101.33 kPa, x1 = 0.1041	0.326
303.15 K, 101.33 kPa, x1 = 0.1842	0.352
303.15 K, 101.33 kPa, x1 = 0.2689	0.381
303.15 K, 101.33 kPa, x1 = 0.3733	0.424
303.15 K, 101.33 kPa, x1 = 0.5487	0.488
303.15 K, 101.33 kPa, x1 = 0.6876	0.514
303.15 K, 101.33 kPa, x1 = 0.8278	0.54
303.16 K, 101 kPa, x1 = 0.1041	0.326
303.16 K, 101 kPa, x1 = 0.1842	0.352
303.16 K, 101 kPa, x1 = 0.2689	0.381
303.16 K, 101 kPa, x1 = 0.3733	0.424
303.16 K, 101 kPa, x1 = 0.5487	0.488
303.16 K, 101 kPa, x1 = 0.6876	0.514
303.16 K, 101 kPa, x1 = 0.8278	0.54
303.55 K, 101 kPa, x1 = 0.75	0.5427
303.65 K, 101 kPa, x1 = 0.5	0.4779
308.15 K, 101 kPa, x2 = 0.112	0.487
308.15 K, 101 kPa, x2 = 0.2	0.482
308.15 K, 101 kPa, x2 = 0.3098	0.467
308.15 K, 101 kPa, x2 = 0.415	0.446
308.15 K, 101 kPa, x2 = 0.502	0.426
308.15 K, 101 kPa, x2 = 0.6075	0.398
308.15 K, 101 kPa, x2 = 0.715	0.365
308.15 K, 101 kPa, x2 = 0.81	0.336
308.15 K, 101 kPa, x2 = 0.9075	0.312
311.65 K, 101 kPa, x1 = 0.75	0.5052
313.15 K, 101 kPa, x1 = 0.157	0.3324
313.15 K, 101 kPa, x1 = 0.25	0.366
313.15 K, 101 kPa, x1 = 0.362	0.394
313.15 K, 101 kPa, x1 = 0.483	0.4257
313.15 K, 101 kPa, x1 = 0.609	0.4577
313.15 K, 101 kPa, x1 = 0.824	0.4867
313.85 K, 101 kPa, x1 = 0.5	0.4341
321.65 K, 101 kPa, x1 = 0.75	0.4644

From the CheMixHub viscosity set
